Among the data in ChEMBL document CHEMBL5726907, “FXR (NR1H4) modulating compounds” (2018) are IC50 values, retold here.

This test has as its target T1, Bile acid receptor (Homo sapiens, UniProt Q96RI1).
T1 sequence (Q96RI1 whole entry): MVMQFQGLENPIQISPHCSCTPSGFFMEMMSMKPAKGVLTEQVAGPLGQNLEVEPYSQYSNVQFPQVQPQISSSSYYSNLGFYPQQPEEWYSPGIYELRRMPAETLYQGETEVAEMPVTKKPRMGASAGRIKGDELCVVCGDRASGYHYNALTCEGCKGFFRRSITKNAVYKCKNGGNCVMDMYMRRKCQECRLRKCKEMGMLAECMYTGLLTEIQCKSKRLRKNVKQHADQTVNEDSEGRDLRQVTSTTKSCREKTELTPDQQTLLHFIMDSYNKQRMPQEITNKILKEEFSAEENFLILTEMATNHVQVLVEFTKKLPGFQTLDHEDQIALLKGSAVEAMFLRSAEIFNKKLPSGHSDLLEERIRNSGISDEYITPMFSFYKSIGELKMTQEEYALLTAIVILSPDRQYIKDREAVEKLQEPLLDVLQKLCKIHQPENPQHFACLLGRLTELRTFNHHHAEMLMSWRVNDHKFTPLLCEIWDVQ
The test can be described thus: FRET Activity Assay: The human FXRalpha LBD was expressed in E. coli strain BL21(DE3) as an N-terminally GST tagged fusion protein. The DNA encoding the FXR ligand binding domain was cloned into vector pDEST15 (Invitrogen). Expression was under control of an IPTG inducible T7 promoter. The amino acid boundaries of the ligand binding domain were amino acids 187-472 of Database entry NM_005123 (RefSeq). Expression and purification of the FXR-LBD: An overnight preculture of a transformed E. coli strain was diluted 1:20 in LB-Ampicillin medium and grown at 30° C. to an optical density of =0.4-0.6. Gene expression was then induced by addition of 0.5 mM IPTG. Cells were incubated an additional 6 h at 30° C., 180 rpm. Cells were collected by centrifugation (7000×g, 7 min, rt). Per liter of original cell culture, cells were resuspended in 10 mL lysis buffer (50 mM Glucose, 50 mM Tris pH 7.9, 1 mM EDTA and 4 mg/mL lysozyme) and left on ice for 30 min. Cells were then subjected to sonication and cell debris removed via centrifugation (22000×g, 30 min, 4° C.). Per 10 mL of supernatant 0.5 mL prewashed Glutathione 4B sepharose slurry (Qiagen) was added and the suspension kept slowly rotating for 1 h at 4° C. Glutathione 4B sepharose beads were pelleted by centrifugation (2000× g, 15 sec, 4° C.) and washed twice in wash buffer (25 mM Tris, 50 mM KCl, 4 mM MgCl2 and IM NaCl). […].

Usually IC50 stands for the concentration that inhibits the measured activity by half. A lower IC50 goes with higher potency. On to `O=C(O)c1cc(F)c2nc(C3(O)C4COCC3CC(OCc3c(-c5c(Cl)cccc5Cl)noc3C3CC3)C4)sc2c1` (configuration not stated), for which the IC50 is 19 nM.

As for `O=C(O)c1ccc2nc(C3(O)C4COCC3CC(OCc3c(-c5c(Cl)cccc5Cl)noc3C3CC3)C4)sc2c1` (configuration not stated), the concentration for half-maximal inhibition (IC50) was found to be 30 nM.
